We go through three molecules from patent publication US5366983A, “Use of quaternary ammonium compounds to remove salmonella contamination from meat products” (The Board of Trustees of The University of Arkansas, priority 1992, dated 1994).

The test system of data set [1] is Salmonella typhimurium on chicken skin. Put plainly: Prevention of attachment of Salmonella on excised chicken skin (Table F5). To be noted: 30 minutes at room temperature; for CFU/ml on XLD agar: rinse water. The method, then: To determine the ability of surfactants to inhibit attachment or produce detachment of Salmonella, the following experiment was conducted. A hole was bored into the bottom of a 150 ml specimen cup. Chicken skin was excised from a drum stick and then placed over the cap of the specimen cup, and then the cap was screwed on. S. typhimurium was diluted 1:5000 with PBS or a surfactant. The surfactants were diluted appropriately. The skin was then inoculated with the solution containing the S. typhimurium and the surfactant for 30 minutes at room temperature.
Following incubation, the skin was washed. The rinse water was diluted appropriately in PBS and then plated onto XLD pour plates. The S. typhimurium was counted and reported as CFU/ml. The skin was swabbed so as to remove any remaining S. typhimurium using a nitroellulose lift and the CFU's/ml on the lift were also counted.

For data set [2] the test system is unchanged. As to the kind of experiment: Effect of surfactants on Salmonella attached to chicken skin, drumsticks (Tables F1-F4). The following applies: 4° C. The method, then:
The following experiments utilizing chicken legs were conducted to determine the killing potential of a variety of surfactants against Salmonella on the skin and free in solutions. To this end, chicken legs obtained from the Department of Agriculture at the University of Arkansas, Fayetteville, were incubated for thirty minutes at room temperature with a 1:5000 dilution of Salmonella typhimurium. The chicken legs were removed five at a time and then rinsed twice in tap water to remove the unattached and excess Salmonella. The rinse water was sampled, diluted, and then plated onto XLD pour plates. […] The chicken legs were then removed and rinsed twice in tap water to remove the released Salmonella and excess chemicals. Rinses were then sampled, diluted, and then plated onto XLD pour plates.
The chicken legs were then individually washed with 100 ml sterile double distilled water, and then shaken fifty times. Samples of the wash H2 O were diluted and plated onto XLD pour plates. The chicken legs were further swabbed after the washing step above. The swabs were then plated onto the XLD plates. A set of wash samples were enriched with TT Broth Base Hajna and then plated onto XLD plates.
All of the samples were plated in 1 ml aliquots onto XLD pour plates. A positive control sample incubated in sterile double distilled water at 4° C. was run for each of the aforementioned conditions. Treatments occurred at both 4° C. and 25° C. The data is reported as the mean number of CFU/ml. The ratio in the table represents the number of chicken legs out of a sample of ten chicken legs producing the notated number of colonies, as indicated by the +, ++, +++, or ++++.

For data set [3], the system named is Salmonella typhimurium ATCC 14028 attached to human buccal epithelial cells. The class given is cell-based. The method, then: Studies were conducted on the attachment of Salmonella typhimurium to human buccal epithelial cells using the modified procedure of Boussard et al., International J. Pharmaceutics 53: 253-256 (1989). In this study, the activities of cationic and anionic surfactant compounds as well as certain chelating agents were compared on the detachment of S. typhimurium from epithelial cells.
To this end, bacteria were grown on nutrient agar for 16 hours at 37° C. The cells were suspended in 0.008 M phosphate buffered saline (PBS) at pH 7.2 and washed two times at 4500 rpm for 10 minutes. The last suspension was diluted in PBS to obtain a cell concentration of 0.5 to 1×10^9 cells/ml. Human epithelial cells were obtained by swabbing the buccal surface of a healthy, nonsmoking donor. […] The number of living cells was estimated and the suspension diluted to 0.5 to 1×10^5 cells/ml.
Next, the suspension of the human buccal cells was mixed with an equal volume of the bacterial suspension (3.0 ml), or PBS (0.8 ml). Contact was allowed for 1.5 hours at 35° C. under agitation. The mixtures were then centrifuged for 10 minutes at 4500 rpm. Each suspension, 1.0 ml, was transferred into Eppendorf vials and washed with PBS at 1500 rpm for 10 minutes. After the washing, the cells were treated with 1.0 ml PBS or 1.0 ml of the test chemical solution. Treatment was performed by suspending and vortexing on a low speed for 30 seconds followed by centrifugation at 1500 rpm for 10 minutes.
After the treatment, the cells were washed once with PBS and then 20 μl of erythrosin B was added to each vial. The suspension was centrifuged at 1500 rpm for 10 minutes, and the cells were washed twice under the same conditions. The final pellet was suspended in 300 μl of PBS. This suspension was spread out onto microscope slides and dried overnight at room temperature. After counter staining with methylene blue, the slides were microscopically examined under oil immersion.

Data set [4] concerns Salmonella typhimurium ATCC 14028. As to the kind of experiment: Minimum growth inhibitory concentration, macrodilution. The following applies: Salmonella enterica, Mueler Hinton broth, macrodilution (NCCLS). Format: cell-based. The method, then: Minimum growth inhibitory concentrations (MICs) of quaternary ammonium compounds and Na2 -EDTA for Salmonella were determined using Mueler Hinton broth (BBL Microbiology system, Cockeysville, Md.) and by the macrodilution method established by the National Committee for Clinical Laboratory Standards (NCCLS). Escherichia coli ATCC 25922 and Staphylococcus aureus ATCC 29213 were included in each assay as reference strains.

Data set [5] has the same test system. Put plainly: Effect on viability of Salmonella in suspension (Tables D-1 to D-3). Format: cell-based. The following applies: for bacterial viability: Table D-3. The method, then: EC50 values for four of the compounds were calculated from the bactericidal activity of the compounds as a function of molar concentration by a nonlinear regression algorithm.
In addition to the quaternary ammonium compounds, the antimicrobial activities of chelating agents Na2 -EDTA and EGTA were investigated. Na2 -EDTA was purchased from the Sigma Chemical Company (St. Louis, Mo.). Na2 -EDTA was dissolved in 0.04 M PPB prior to the assay and further dilutions were made in the same buffer.
EGTA was purchased from the Aldrich Chemical Company (Milwaukee, Wis.). EGTA was dissolved in 0.04 M PPB according to the procedure described by Harafuji and Ogawa (J. Biochem. 87:1305-1312 (1980)). After heating EGTA for 15 minutes at 80° C., the pH was adjusted to 7.0 by addition of NaOH. EGTA was filter-sterilized using a 0.2 μm Acro disc filter (Gelman Sciences; Ann Arbor, Mich.) prior to the assay. Further dilutions were made in sterile PPB.

Entries after “also recorded” stand apart in the source; their conditions may differ. Read-outs that look alike come from different tables or passages of the source.

Turning to `CCCCCCCCCCCCOS(=O)(=O)[O-].[Na+]` [SDS, sodium dodecylsulfate, reference compound], the “CFU/ml on XLD agar” value in data set [1] is listed as 4 × 10^2 CFU/ml. In data set [2] (0.1%), the “Enrichment, chicken legs out of ten” value is listed as 10/10; the “Rinse H2O” value is listed as “++ (11-100)”; the “Surfactant Solution” value is on record as “++ (11-100)”; the “Swabs, chicken legs producing the notated number of colonies” value (from here on “Swabs … of colonies”) is recorded as 10/10. In data set [2] (0.1%), the “Swabs, colonies” value is recorded as “++ (11-100)”; the “Wash H2O, chicken legs producing the notated number of colonies” value (“Wash H2O … of colonies” below) is listed as 10/10; the “Wash H2O, colonies” value is given as “++ (11-100)”. Moreover, in data set [2] (0.5%), the “Enrichment, chicken legs out of ten” value was 10/10; the “Rinse H2O” value is given as “+ (1-10)”; the “Surfactant Solution” value is “++ (11-100)”; the “Swabs … of colonies” value is on record as 10/10. Also, in data set [2] (0.5%), the “Swabs, colonies” value is “++ (11-100)”; the “Wash H2O … of colonies” value is 10/10; the “Wash H2O, colonies” value is on record as “++ (11-100)”. Also, in data set [2] (1.0%), the “Enrichment, chicken legs out of ten” value is listed as 10/10; the “Rinse H2O” value is listed as “+ (1-10)”; the “Surfactant Solution” value is listed as “+ (1-10)”; the “Swabs … of colonies” value was 10/10. In data set [2] (1.0%), the “Swabs, colonies” value was “++ (11-100)”; the “Wash H2O … of colonies” value is recorded as 10/10; the “Wash H2O, colonies” value was “++ (11-100)”. Moreover, in data set [3] (25 ug/ml, Table A-1), the “adherence, mean value of attached bacteria” value (from here on “adherence, mean value”) is recorded as 43 ± 25. Further, the “adherence, mean value” value in data set [3] (50 ug/ml, Table A-1) is recorded as 26 ± 19. Moreover, in data set [3] (500 ug/ml, Table A-1), the “cytotoxicity to buccal epithelial cells” value is given as “cytotoxic”.
Take `O=C(O)CN(CCN(CC(=O)O)CC(=O)O)CC(=O)O` [Na2 -EDTA, disodium ethylenectiaminetetraacetate, reference compound]: in data set [4], the MIC is 625 µg/mL. The bacterial viability in data set [5] (1,250 μg/ml) was 9.48 ± 0.63 × 10^8 CFU/ml; in data set [5] (2,500 μg/ml) it was 9.68 ± 0.16 × 10^8 CFU/ml; in data set [5] (5,000 μg/ml) it was 9.89 ± 0.37 × 10^8 CFU/ml. Further, in data set [5] (viability testing in suspension), the “bactericidal effect against S. typhimurium (in words)” value was “ineffective; also recorded: no bactericidal effect”. Moreover, the “adherence, mean value” value in data set [3] (500 ug/ml, Table A-2) turned out to be 43 ± 21; in data set [3] (1250 ug/ml, Table A-2), 22 ± 12; in data set [3] (2500 ug/ml, Table A-2), 35 ± 18; in data set [3] (10,000 ug/ml, Table A-2), 31 ± 14. Further, the “effect on bacteria attached to the epithelial cells (in words)” value in data set [3] (chelating agents, Na2-EDTA at 1250 μg/ml) is “highly effective”.
On to “Benzalkonium Chloride [reference compound]”, for which the “CFU/ml on XLD agar” value in data set [1] is given as 0 CFU/ml. Also, in data set [1] (skin), the “Nitrocellulose lift (# of colonies)” value was “OG(R)”. For the same molecule, in data set [2] (0.1%), the “Enrichment, chicken legs out of ten” value is 1/10; the “Rinse H2O” value is recorded as “+ (1-10)”; the “Surfactant Solution” value is listed as 0 CFU/ml; the “Swabs … of colonies” value is 6/10. Also, in data set [2] (0.1%), the “Swabs, colonies” value was “+ (1-10)”; the “Wash H2O … of colonies” value is listed as 4/10; the “Wash H2O, colonies” value is given as “+ (1-10)”. Besides, in data set [2] (0.5%), the “Enrichment, chicken legs out of ten” value is recorded as 1/10; the “Rinse H2O” value is on record as 0 CFU/ml; the “Surfactant Solution” value amounted to 0 CFU/ml; the “Swabs … of colonies” value is given as 1/10. Also, in data set [2] (0.5%), the “Swabs, colonies” value is given as “+ (1-10)” and the “Wash H2O, colonies” value was 0 CFU/ml. For the same molecule, in data set [2] (1.0%), the “Enrichment, chicken legs out of ten” value is recorded as 0/10; the “Rinse H2O” value is 0 CFU/ml; the “Surfactant Solution” value is 0 CFU/ml; the “Swabs … of colonies” value is listed as 1/10. In data set [2] (1.0%), the “Swabs, colonies” value was “++ (11-100)” and the “Wash H2O, colonies” value worked out at 0 CFU/ml.
